Measured values as given in patent publication US20240368127A1, “HSD17B13 INHIBITORS AND USES THEREOF” (FL2022-001, Inc., priority 2021, published 2024).

Target: T1, Recombinant human HSD17B13 enzyme (Homo sapiens, UniProt Q7Z5P4)
T1 sequence (Q7Z5P4 20-300): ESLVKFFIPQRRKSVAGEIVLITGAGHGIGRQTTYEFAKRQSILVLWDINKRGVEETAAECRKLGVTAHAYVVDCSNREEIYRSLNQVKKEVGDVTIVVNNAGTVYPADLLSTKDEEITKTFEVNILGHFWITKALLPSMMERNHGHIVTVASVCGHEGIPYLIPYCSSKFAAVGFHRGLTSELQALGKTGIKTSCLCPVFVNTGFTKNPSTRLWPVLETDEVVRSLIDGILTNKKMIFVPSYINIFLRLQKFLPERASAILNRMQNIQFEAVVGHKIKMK
Test: HSD17b13 NAD(P)H-Glo biochemical assay
Details: 50 μM estradiol, 1 mM NAD+, 37° C. for 3 hours; read-out: HSD17β13 IC50
Procedure: Example B-1: HSD17b13 NAD (P) H-Glo Biochemical Assay
Recombinant human HSD17B13 enzyme. Substrate: estradiol (Sigma β-Estradiol E8875), 100 mM in DMSO. Cofactor: NAD+ Grade I free acid (Sigma 10127965001), 20 mM in H2O. Assay buffer final concentration: 20 mM Tris pH7.4 with 0.002% Tween-20 and 0.02% BSA. Assay performed in 384 well solid bottom plate (Corning 3570). Enzymatic activity detected by NAD (P) H-Glo™ Detection System (Promega G9062).
Inhibitor compounds were serially diluted in DMSO and then further diluted in assay buffer to a 10× concentration consisting of 1% DMSO.
HSD17b13 enzyme was diluted in 1× assay buffer to the desired enzyme concentration based on the specific activity of the enzyme lot. 20 μL of diluted enzyme was added to each well along with 2.5 μL of 10× inhibitor solution. Assay plate was incubated at RT for 20 minutes, and then 2.5 μL of a 10× substrate/cofactor mix was added to each well for a final concentration of 50 μM estradiol and 1 mM NAD+. Assay plate was incubated at 37° C. for 3 hours. NAD (P) H-Glo™ Detection System reagents were prepared according to manufacturer's specifications, and 25 μL was added to each well. After incubating for 1 hour at RT, luminescence was measured.

IC50 | Compound
≤ 100 nM | Cc1nn(-c2ccc(F)c(O)c2F)c2cnc(N3CCN(S(C)(=O)=O)C[C@H]3Cc3ccccc3)cc12 [Compound 2.15, (R)-3-(5-(2-Benzyl-4-(methylsulfonyl)piperazin-1-yl)-3-methyl-1H-pyrazolo[3,4-c]pyridin-1-yl)-2,6-difluorophenol]
≤ 100 nM | Cc1nn(-c2ccc(Cl)c(O)c2F)c2cnc(N3CCN(S(C)(=O)=O)C[C@H]3Cc3ccccc3)cc12 [Compound 2.16, (R)-3-(5-(2-Benzyl-4-(methylsulfonyl)piperazin-1-yl)-3-methyl-1H-pyrazolo[3,4-c]pyridin-1-yl)-6-chloro-2-fluorophenol]
100 to 1000 nM | Cc1nn(-c2ncc(Cl)c(O)c2F)c2cnc(N3CCN(S(C)(=O)=O)C[C@H]3Cc3ccccc3)cc12 [Compound 2.17, (R)-2-(5-(2-Benzyl-4-(methylsulfonyl)piperazin-1-yl)-3-methyl-1H-pyrazolo[3,4-c]pyridin-1-yl)-5-chloro-3-fluoropyridin-4-ol]
≤ 100 nM | CS(=O)(=O)N1CCN(c2ncc3c(n2)c(Cl)nn3-c2cc(C(F)(F)F)c(F)c(O)c2F)[C@H](Cc2ccccc2)C1 [Compound 2.18, (R)-3-(5-(2-Benzyl-4-(methylsulfonyl)piperazin-1-yl)-3-chloro-1H-pyrazolo[4,3-d]pyrimidin-1-yl)-2,6-difluoro-5-(trifluoromethyl)phenol]
≤ 100 nM | CS(=O)(=O)N1CCN(c2cc3cnn(-c4cc(C(F)(F)F)c(F)c(O)c4F)c3cn2)[C@H](Cc2ccccc2)C1 [Compound 2.19, (R)-3-(5-(2-Benzyl-4-(methylsulfonyl)piperazin-1-yl)-1H-pyrazolo[3,4-c]pyridin-1-yl)-2,6-difluoro-5-(trifluoromethyl)phenol]
≤ 100 nM | CS(=O)(=O)N1CCN(c2cc3c(Cl)nn(-c4cc(C(F)(F)F)c(F)c(O)c4F)c3cn2)[C@H](Cc2ccccc2)C1 [Compound 2.20, (R)-3-(5-(2-Benzyl-4-(methylsulfonyl)piperazin-1-yl)-3-chloro-1H-pyrazolo[3,4-c]pyridin-1-yl)-2,6-difluoro-5-(trifluoromethyl)phenol]
≤ 100 nM | Cc1nn(-c2cc(C(F)(F)F)c(Cl)c(O)c2F)c2cnc(N3CCN(S(C)(=O)=O)C[C@H]3Cc3ccccc3)nc12 [Compound 2.21, (R)-3-(5-(2-Benzyl-4-(methylsulfonyl)piperazin-1-yl)-3-methyl-1H-pyrazolo[4,3-d]pyrimidin-1-yl)-6-chloro-2-fluoro-5-(trifluoromethyl)phenol]
≤ 100 nM | CS(=O)(=O)N1CCN(c2cc3c(Cl)nn(-c4cc(C(F)(F)F)c(Cl)c(O)c4F)c3cn2)[C@H](Cc2ccccc2)C1 [Compound 2.22, (R)-3-(5-(2-Benzyl-4-(methylsulfonyl)piperazin-1-yl)-3-chloro-1H-pyrazolo[3,4-c]pyridin-1-yl)-6-chloro-2-fluoro-5-(trifluoromethyl)phenol]
≤ 100 nM | CS(=O)(=O)N1CCN(c2cc3c(N)nn(-c4cc(C(F)(F)F)c(F)c(O)c4F)c3cn2)[C@H](Cc2ccccc2)C1 [Compound 2.23, (R)-3-(3-Amino-5-(2-benzyl-4-(methylsulfonyl)piperazin-1-l)-1H-pyrazolo[3,4-c]pyridin-1-yl)-2,6-difluoro-5-(trifluoromethyl)phenol]
≤ 100 nM | CNc1nn(-c2cc(C(F)(F)F)c(F)c(O)c2F)c2cnc(N3CCN(S(C)(=O)=O)C[C@H]3Cc3ccccc3)cc12 [Compound 2.24, (R)-3-(5-(2-Benzyl-4-(methylsulfonyl)piperazin-1-yl)-3-(methylamino)-1H-pyrazolo[3,4-c]pyridin-1-yl)-2,6-difluoro-5-(trifluoromethyl)phenol]
≤ 100 nM | CN(C)c1nn(-c2cc(C(F)(F)F)c(F)c(O)c2F)c2ccc(N3CCN(S(C)(=O)=O)C[C@H]3Cc3ccccc3)cc12 [Compound 2.25, (R)-3-(5-(2-Benzyl-4-(methylsulfonyl)piperazin-1-yl)-3-(dimethylamino)-1H-indazol-1-yl)-2,6-difluoro-5-(trifluoromethyl)phenol]
